The molecules below were run against T1, Plk1 (Homo sapiens, UniProt P53350) (assay: Plk1 inhibition assay (radioactive-phosphate incorporation)). Conditions: Ki(app) from initial rate data.
T1 construct: in the presence of 15 nM Plk1 (A20-K338)
Type: biochemical
Description: The compounds of the present invention are evaluated as inhibitors of human PLK kinase using the following assays.
(§1) Compounds were screened for their ability to inhibit Plk1 using a radioactive-phosphate incorporation assay. Assays were carried out in a mixture of 25 mM HEPES (pH 7.5), 10 mM MgCl2, and 1 mM DTT. […] An assay stock buffer solution was prepared containing all of the reagents listed above, with the exception of ATP and the test compound of interest. […] The plate was pre-incubated for 10 minutes at 25° C. and the reaction initiated by addition of 8 μL [γ-33 P]ATP (final concentration 50 μM).
(§2) The reaction was stopped after 60 minutes by the addition of 100 μL 0.14M phosphoric acid. A multiscreen phosphocellulose filter 96-well plate (Millipore, Cat no. MAPHN0B50) was pretreated with 100 μL 0.2M phosphoric acid prior to the addition of 125 μL of the stopped assay mixture. The plate was washed with 4×200 μL 0.2M phosphoric acid.
After removing mean background values for all of the data points, Ki(app) data were calculated from non-linear regression analysis of the initial rate data using the Prism software package (GraphPad Prism version 3.0cx for Macintosh, GraphPad Software, San Diego, Calif., USA).
as §1, with “MgCl2, […],” for “MgCl2,”, “and 2” for “and 1”, “μL [γ-33P]ATP” for “μL [γ-33 P]ATP”, “concentration 100” for “concentration 50”
as §2, with “90” for “60”

T1 sequence (P53350 20-338): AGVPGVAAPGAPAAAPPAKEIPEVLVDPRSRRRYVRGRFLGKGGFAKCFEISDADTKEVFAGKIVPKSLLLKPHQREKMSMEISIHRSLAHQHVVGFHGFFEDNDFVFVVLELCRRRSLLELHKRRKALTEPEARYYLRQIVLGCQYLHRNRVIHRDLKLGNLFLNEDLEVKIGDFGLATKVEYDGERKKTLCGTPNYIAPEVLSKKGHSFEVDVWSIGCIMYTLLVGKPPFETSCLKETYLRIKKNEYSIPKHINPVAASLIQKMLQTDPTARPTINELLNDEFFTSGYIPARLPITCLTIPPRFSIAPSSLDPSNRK

`CC(Oc1cc(-c2cnn3ccccc23)sc1C(N)=O)c1ccccc1Cl` (stereo not shown) [Compound I-2, 3-[1-(2-Chloro-phenyl)-ethoxy]-5-pyrazolo[1,5-a]pyridin-3-yl-thiophene-2-carboxamide] and `CC(Oc1cc(-c2cnc3cccnn23)sc1C(N)=O)c1ccccc1Cl` (stereo not shown) [Compound I-12, 3-(1-(2-chlorophenyl)ethoxy)-5-(imidazo[1,2-b]pyridazin-3-yl)thiophene-2-carboxamide] cannot be ordered by Ki: less than 100 nM for the first, less than 100 nM for the second.

`COc1cnc2[nH]cc(-c3cc(OC(C)c4ccccc4Cl)c(C(N)=O)s3)c2c1` (stereo not shown) [Compound I-3, 3-[1-(2-Chloro-phenyl)-ethoxy]-5-(5-methoxy-1H-pyrrolo[2,3-b]pyridin-3-yl)-thiophene-2-carboxyamide] and `C=Cc1cnc2[nH]cc(-c3cc(OC(C)c4ccccc4Cl)c(C(N)=O)s3)c2c1` (stereo not shown) [Compound I-6, 3-(1-(2-chlorophenyl)ethoxy)-5-(5-vinyl-1H-pyrrolo[2,3-b]pyridin-3-yl)thiophene-2-carboxamide] cannot be ordered by Ki: less than 100 nM for the first, less than 100 nM for the second.

First: CC(Oc1cc(-c2nnc3ccc(N)nn23)sc1C(N)=O)c1ccccc1Cl (stereo not shown) [Compound I-4]
Second: CC(Oc1cc(-c2cnc3cc(N)ccn23)sc1C(N)=O)c1ccccc1Cl (stereo not shown) [Compound I-15, 5-(7-aminoimidazo[1,2-a]pyridin-3-yl)-3-(1-(2-chlorophenyl)ethoxy)thiophene-2-carboxamide]
The Ki of the first is higher: greater than 1000 nM for the first, less than 100 nM for the second. The second binds more tightly here.

First: CC(Oc1cc(-c2cnc3[nH]ccc3c2)sc1C(N)=O)c1ccccc1Cl (stereo not shown) [Compound I-5, 3-[1-(2-Chloro-phenyl)-ethoxy]-5-(1H-pyrrolo[2,3-b]pyridin-5-yl)-thiophene-2-carboxamide]
Second: CC(Oc1cc(-c2cnc3ccc(F)cn23)sc1C(N)=O)c1ccccc1Cl (stereo not shown) [Compound I-8, 3-(1-(2-chlorophenyl)ethoxy)-5-(6-fluoroimidazo[1,2-a]pyridin-3-yl)thiophene-2-carboxamide]
The Ki of the first is higher: 100 to 1000 nM for the first, less than 100 nM for the second. The second binds more tightly here.

`CNC(=O)c1ccc2ncc(-c3cc(OC(C)c4ccccc4Cl)c(C(N)=O)s3)n2c1` (stereo not shown) [Compound I-7, 3-(5-carbamoyl-4-(1-(2-chlorophenyl)ethoxy)thiophen-2-yl)-N-methylimidazo[1,2-a]pyridine-6-carboxamide] and `CNC(=O)c1ccn2c(-c3cc(OC(C)c4ccccc4Cl)c(C(N)=O)s3)cnc2c1` (stereo not shown) [Compound I-11, 3-(5-carbamoyl-4-(1-(2-chlorophenyl)ethoxy)thiophen-2-yl)-N-methylimidazo[1,2-a]pyridine-7-carboxamide] cannot be ordered by Ki: less than 100 nM for the first, less than 100 nM for the second.

`CC(Oc1cc(-c2cnc3cnccn23)sc1C(N)=O)c1ccccc1Cl` (stereo not shown) [Compound I-9] and `CC(Oc1cc(-c2cnc3cc(C(F)(F)F)ccn23)sc1C(N)=O)c1ccccc1Cl` (stereo not shown) [Compound I-13, 3-(1-(2-chlorophenyl)ethoxy)-5-(7-(trifluoromethyl)imidazo[1,2-a]pyridin-3-yl)thiophene-2-carboxamide] cannot be ordered by Ki: less than 100 nM for the first, less than 100 nM for the second.

`CC(Oc1cc(-c2cnc3ccc(C(F)(F)F)cn23)sc1C(N)=O)c1ccccc1Cl` (stereo not shown) [Compound I-10, 3-(1-(2-chlorophenyl)ethoxy)-5-(6-(trifluoromethyl)imidazo[1,2-a]pyridin-3-yl)thiophene-2-carboxamide] and `COC(=O)Nc1ccn2c(-c3cc(O[C@@H](C)c4ccccc4Cl)c(C(N)=O)s3)cnc2c1` [Compound I-19, (S)-methyl 3-(5-carbamoyl-4-(1-(2-chlorophenyl)ethoxy)thiophen-2-yl)imidazo[1,2-a]pyridin-7-ylcarbamate] cannot be ordered by Ki: less than 100 nM for the first, less than 100 nM for the second.

`CCOC(=O)Nc1ccn2c(-c3cc(OC(C)c4ccccc4Cl)c(C(N)=O)s3)cnc2c1` (stereo not shown) [Compound I-14, Ethyl 3-(5-carbamoyl-4-(1-(2-chlorophenyl)ethoxy)thiophen-2-yl)imidazo[1,2-a]pyridin-7-ylcarbamate] and `CCOC(=O)Nc1ccn2c(-c3cc(O[C@@H](C)c4ccccc4Cl)c(C(N)=O)s3)cnc2c1` [Compound I-20, (S)-ethyl 3-(5-carbamoyl-4-(1-(2-chlorophenyl)ethoxy)thiophen-2-yl)imidazo[1,2-a]pyridin-7-ylcarbamate] cannot be ordered by Ki: less than 100 nM for the first, less than 100 nM for the second.

Compared with `CNC(=O)c1sc(-c2cnc3ccccn23)cc1OC(C)c1ccccc1Cl` (stereo not shown) [Compound I-16, 3-(1-(2-chlorophenyl)ethoxy)-5-(imidazo[1,2-a]pyridin-3-yl)-N-methylthiophene-2-carboxamide], `COC(=O)N(C)c1ccn2c(-c3cc(OC(C)c4ccccc4Cl)c(C(N)=O)s3)cnc2c1` (stereo not shown) [Compound I-18, Methyl 3-(5-carbamoyl-4-(1-(2-chlorophenyl)ethoxy)thiophen-2-yl)imidazo[1,2-a]pyridin-7-yl(methyl)carbamate] is lower in Ki: greater than 1000 nM for the first, less than 100 nM for the second. The second binds more tightly here.

`CCOC(=O)N(C)c1ccn2c(-c3cc(OC(C)c4ccccc4Cl)c(C(N)=O)s3)cnc2c1` (stereo not shown) [Compound I-17, Ethyl 3-(5-carbamoyl-4-(1-(2-chlorophenyl)ethoxy)thiophen-2-yl)imidazo[1,2-a]pyridin-7-yl(methyl)carbamate] and `CCOC(=O)Nc1ccn2c(-c3cc(O[C@@H](CC)c4ccccc4Cl)c(C(N)=O)s3)cnc2c1` [Compound I-22, (S)-ethyl 3-(5-carbamoyl-4-(1-(2-chlorophenyl)propoxy)thiophen-2-yl)imidazo[1,2-a]pyridin-7-ylcarbamate] cannot be ordered by Ki: less than 100 nM for the first, less than 100 nM for the second.

`CC[C@H](Oc1cc(-c2cnc3cc(NC(=O)OC)ccn23)sc1C(N)=O)c1ccccc1Cl` [Compound I-21, (S)-methyl 3-(5-carbamoyl-4-(1-(2-chlorophenyl)propoxy)thiophen-2-yl)imidazo[1,2-a]pyridin-7-ylcarbamate] and `CCOC(=O)Nc1ccn2c(-c3cc(OC(C)(C)c4ccccc4Cl)c(C(N)=O)s3)cnc2c1` [Compound I-25, Ethyl 3-(5-carbamoyl-4-(2-(2-chlorophenyl)propan-2-yloxy)thiophen-2-yl)imidazo[1,2-a]pyridin-7-ylcarbamate] cannot be ordered by Ki: less than 100 nM for the first, less than 100 nM for the second.

Source: patent US8399478B2 (Vertex Pharmaceuticals Incorporated, priority 2006, dated 2013)
